The values below come from US20150197550A1 (UNIVERSITY OF ULSTER, priority 2012, published 2015).

Numbered stars: 1 amine (or outer) side, 2 acyl side, 3 side chain; on linkers, the order of the positions; unused ones are H or OH. Square brackets hold non-standard residues; d marks the D form. Side chains are listed from the residue outwards. Peptide text beside a SMILES is read from it. * marks the point of attachment. γGlu = O=C(O)[C@H](CCC(=O)[*:2])N[*:1]; Palmitoyl = CCCCCCCCCCCCCCCC(=O)*; Abu = CC[C@H](N)C(=O)O; Aib = CC(C)(N)C(=O)O

One data set in a line: Stability on incubation with mouse plasma for 8 h (RP-HPLC peak height). The data set is classed as in vitro ADME. Particulars: mouse plasma, 8 h, peak height vs time = 0 h; read-out: Percentage of degradation after 8h.
Method: The samples were then separated on RP-HPLC and the peak height compared to the value at time=0 hours.
As to `CC[C@H](C)[C@H](NC(=O)[C@H](Cc1ccccc1)NC(=O)[C@@H](NC(=O)CNC(=O)[C@H](CCC(=O)O)NC(=O)[C@@H](C)NC(=O)[C@@H](N)Cc1c[nH]cn1)[C@@H](C)O)C(=O)N[C@@H](CO)C(=O)N[C@@H](CC(=O)O)C(=O)N[C@@H](Cc1ccc(O)cc1)C(=O)N[C@@H](CO)C(=O)N[C@@H](CCCCN)C(=O)N[C@@H](Cc1ccc(O)cc1)C(=O)N[C@@H](CCSC)C(=O)N[C@@H](CC(=O)O)C(=O)N[C@@H](CC(N)=O)C(=O)N[C@@H](CCCNC(=N)N)C(=O)N[C@@H](CCCNC(=N)N)C(=O)N[C@@H](C)C(=O)N[C@@H](CCCCN)C(=O)N[C@@H](CC(=O)O)C(=O)N[C@@H](Cc1ccccc1)C(=O)N[C@H](C(=O)N[C@@H](CCC(N)=O)C(=O)N[C@@H](Cc1c[nH]c2ccccc12)C(=O)N[C@@H](CC(C)C)C(=O)N[C@@H](CCSC)C(=O)N[C@@H](CC(N)=O)C(=O)N[C@H](C(=O)O)[C@@H](C)O)C(C)C` [(D-A^2 I^7) dogfish glucagon, (D-A^2I^7) dogfish glucagon] (H-H[dA]EGTFISDYSKYMDNRRAKDFVQWLMNT-OH; N-terminus and C-terminus assumed), the metabolised at 8 h turned out to be 33%.

Still in this data set, the particulars now being: mouse, plasma.
With `CC[C@H](NC(=O)[C@@H](N)Cc1c[nH]cn1)C(=O)N[C@@H](CCC(=O)O)C(=O)NCC(=O)N[C@H](C(=O)N[C@@H](Cc1ccccc1)C(=O)N[C@H](C(=O)N[C@@H](CO)C(=O)N[C@@H](CC(=O)O)C(=O)N[C@@H](Cc1ccc(O)cc1)C(=O)N[C@@H](CO)C(=O)N[C@@H](CCCCN)C(=O)N[C@@H](Cc1ccc(O)cc1)C(=O)N[C@@H](CCSC)C(=O)N[C@@H](CC(=O)O)C(=O)N[C@@H](CC(N)=O)C(=O)N[C@@H](CCCNC(=N)N)C(=O)N[C@@H](CCCNC(=N)N)C(=O)N[C@@H](C)C(=O)N[C@@H](CCCCN)C(=O)N[C@@H](CC(=O)O)C(=O)N[C@@H](Cc1ccccc1)C(=O)N[C@H](C(=O)N[C@@H](CCC(N)=O)C(=O)N[C@@H](Cc1c[nH]c2ccccc12)C(=O)N[C@@H](CC(C)C)C(=O)N[C@@H](CCSC)C(=O)N[C@@H](CC(N)=O)C(=O)N[C@H](C(=O)O)[C@@H](C)O)C(C)C)[C@@H](C)O)[C@@H](C)O` [(Abu^2) dogfish glucagon] (H-H[Abu]EGTFTSDYSKYMDNRRAKDFVQWLMNT-OH; N-terminus and C-terminus assumed), the metabolised at 8 h is 58.4%.
Regarding `CSCC[C@H](NC(=O)[C@H](Cc1ccc(O)cc1)NC(=O)[C@H](CCCCN)NC(=O)[C@H](CO)NC(=O)[C@H](Cc1ccc(O)cc1)NC(=O)[C@H](CC(=O)O)NC(=O)[C@H](CO)NC(=O)[C@@H](NC(=O)[C@H](Cc1ccccc1)NC(=O)[C@@H](NC(=O)CNC(=O)[C@H](CCC(=O)O)NC(=O)C(C)(C)NC(=O)[C@@H](N)Cc1c[nH]cn1)[C@@H](C)O)[C@@H](C)O)C(=O)N[C@@H](CC(=O)O)C(=O)N[C@@H](CC(N)=O)C(=O)N[C@@H](CCCNC(=N)N)C(=O)N[C@@H](CCCNC(=N)N)C(=O)N[C@@H](C)C(=O)N[C@@H](CCCCN)C(=O)N[C@@H](CC(=O)O)C(=O)N[C@@H](Cc1ccccc1)C(=O)N[C@H](C(=O)N[C@@H](CCC(N)=O)C(=O)N[C@@H](Cc1c[nH]c2ccccc12)C(=O)N[C@@H](CC(C)C)C(=O)N[C@@H](CCSC)C(=O)N[C@@H](CC(N)=O)C(=O)N[C@H](C(=O)O)[C@@H](C)O)C(C)C` [(Aib^2) dogfish glucagon] (H-H[Aib]EGTFTSDYSKYMDNRRAKDFVQWLMNT-OH; N-terminus and C-terminus assumed), the metabolised at 8 h turned out to be 47.4%.
For `CSCC[C@H](NC(=O)[C@H](C)NC(=O)[C@H](CCCCN)NC(=O)[C@H](CO)NC(=O)[C@H](Cc1ccc(O)cc1)NC(=O)[C@H](CC(=O)O)NC(=O)[C@H](CO)NC(=O)[C@@H](NC(=O)[C@H](Cc1ccccc1)NC(=O)[C@@H](NC(=O)CNC(=O)[C@H](CCC(=O)O)NC(=O)[C@@H](C)NC(=O)[C@@H](N)Cc1c[nH]cn1)[C@@H](C)O)[C@@H](C)O)C(=O)N[C@@H](CC(=O)O)C(=O)N[C@@H](CC(N)=O)C(=O)N[C@@H](CCCNC(=N)N)C(=O)N[C@@H](CCCNC(=N)N)C(=O)N[C@@H](C)C(=O)N[C@@H](CCCCN)C(=O)N[C@@H](CC(=O)O)C(=O)N[C@@H](Cc1ccccc1)C(=O)N[C@H](C(=O)N[C@@H](CCC(N)=O)C(=O)N[C@@H](Cc1c[nH]c2ccccc12)C(=O)N[C@@H](CC(C)C)C(=O)N[C@@H](CCSC)C(=O)N[C@@H](CC(N)=O)C(=O)N[C@H](C(=O)O)[C@@H](C)O)C(C)C` [(D-A^2 A^13) dogfish glucagon, (D-A^2A^13) dogfish glucagon] (H-H[dA]EGTFTSDYSKAMDNRRAKDFVQWLMNT-OH; N-terminus and C-terminus assumed), the metabolised at 8 h worked out at 33.9%.
The same measure, in the same setting: the result for `CSCC[C@H](NC(=O)[C@H](Cc1ccc(O)cc1)NC(=O)[C@H](CCCCN)NC(=O)[C@H](CO)NC(=O)[C@H](Cc1ccc(O)cc1)NC(=O)[C@H](CC(=O)O)NC(=O)[C@H](CO)NC(=O)[C@@H](NC(=O)[C@H](Cc1ccccc1)NC(=O)[C@@H](NC(=O)CNC(=O)[C@H](CCC(=O)O)NC(=O)[C@@H](C)NC(=O)[C@@H](N)Cc1c[nH]cn1)[C@@H](C)O)[C@@H](C)O)C(=O)N[C@@H](CC(=O)O)C(=O)N[C@@H](CC(N)=O)C(=O)N[C@@H](CCCNC(=N)N)C(=O)N[C@@H](CCCNC(=N)N)C(=O)N[C@@H](C)C(=O)N[C@@H](CCCCN)C(=O)N[C@H](CC(=O)O)C(=O)N[C@@H](Cc1ccccc1)C(=O)N[C@H](C(=O)N[C@@H](CCC(N)=O)C(=O)N[C@@H](Cc1c[nH]c2ccccc12)C(=O)N[C@@H](CC(C)C)C(=O)N[C@@H](CCSC)C(=O)N[C@@H](CC(N)=O)C(=O)N[C@H](C(=O)O)[C@@H](C)O)C(C)C` [(D-A^2 D-D^21) dogfish glucagon, (D-A^2D-D^21) dogfish glucagon] (H-H[dA]EGTFTSDYSKYMDNRRAK[dD]FVQWLMNT-OH; N-terminus and C-terminus assumed) reads 31.7%; that for `CSCC[C@H](NC(=O)[C@H](CC(C)C)NC(=O)[C@H](Cc1c[nH]c2ccccc12)NC(=O)[C@H](CCC(N)=O)NC(=O)[C@@H](NC(=O)[C@H](Cc1ccccc1)NC(=O)[C@H](CC(=O)O)NC(=O)[C@H](CCCCN)NC(=O)[C@H](C)NC(=O)[C@H](CCCNC(=N)N)NC(=O)[C@H](CCCNC(=N)N)NC(=O)[C@H](CC(N)=O)NC(=O)[C@H](CC(=O)O)NC(=O)[C@H](CCSC)NC(=O)[C@@H](Cc1ccc(O)cc1)NC(=O)[C@H](CCCCN)NC(=O)[C@H](CO)NC(=O)[C@H](Cc1ccc(O)cc1)NC(=O)[C@H](CC(=O)O)NC(=O)[C@H](CO)NC(=O)[C@@H](NC(=O)[C@H](Cc1ccccc1)NC(=O)[C@@H](NC(=O)CNC(=O)[C@H](CCC(=O)O)NC(=O)[C@@H](C)NC(=O)[C@@H](N)Cc1c[nH]cn1)[C@@H](C)O)[C@@H](C)O)C(C)C)C(=O)N[C@@H](CC(N)=O)C(=O)N[C@H](C(=O)O)[C@@H](C)O` [(D-A^2 D-Y^13) dogfish glucagon, (D-A^2D-Y^13) dogfish glucagon] (H-H[dA]EGTFTSDYSK[dY]MDNRRAKDFVQWLMNT-OH; N-terminus and C-terminus assumed), 26.5%; that for `CC[C@H](C)[C@H](NC(=O)[C@H](CO)NC(=O)[C@H](Cc1ccc(O)cc1)NC(=O)[C@H](CC(=O)O)NC(=O)[C@H](CO)NC(=O)[C@@H](NC(=O)[C@H](Cc1ccccc1)NC(=O)[C@@H](NC(=O)CNC(=O)[C@H](CCC(=O)O)NC(=O)[C@@H](C)NC(=O)[C@@H](N)Cc1c[nH]cn1)[C@@H](C)O)[C@@H](C)O)C(=O)N[C@@H](Cc1ccc(O)cc1)C(=O)N[C@@H](CCSC)C(=O)N[C@@H](CC(=O)O)C(=O)N[C@@H](CC(N)=O)C(=O)N[C@@H](CCCNC(=N)N)C(=O)N[C@@H](CCCNC(=N)N)C(=O)N[C@@H](C)C(=O)N[C@@H](CCCCN)C(=O)N[C@@H](CC(=O)O)C(=O)N[C@@H](Cc1ccccc1)C(=O)N[C@H](C(=O)N[C@@H](CCC(N)=O)C(=O)N[C@@H](Cc1c[nH]c2ccccc12)C(=O)N[C@@H](CC(C)C)C(=O)N[C@@H](CCSC)C(=O)N[C@@H](CC(N)=O)C(=O)N[C@H](C(=O)O)[C@@H](C)O)C(C)C` [(D-A^2 I^12) dogfish glucagon, (D-A^2I^12) dogfish glucagon] (H-H[dA]EGTFTSDYSIYMDNRRAKDFVQWLMNT-OH; N-terminus and C-terminus assumed), 20.7%.
Same read-out and setting: the result for `CCCCCCCCCCCCCCCC(=O)N[C@@H](CCC(=O)NCCCC[C@H](NC(=O)[C@@H](NC(=O)[C@H](CC(N)=O)NC(=O)[C@H](CCSC)NC(=O)[C@H](CC(C)C)NC(=O)[C@H](Cc1c[nH]c2ccccc12)NC(=O)[C@H](CCC(N)=O)NC(=O)[C@@H](NC(=O)[C@H](Cc1ccccc1)NC(=O)[C@H](CC(=O)O)NC(=O)[C@H](CCCCN)NC(=O)[C@H](C)NC(=O)[C@H](CCCNC(=N)N)NC(=O)[C@H](CCCNC(=N)N)NC(=O)[C@H](CC(N)=O)NC(=O)[C@H](CC(=O)O)NC(=O)[C@H](CCSC)NC(=O)[C@H](Cc1ccc(O)cc1)NC(=O)[C@H](CCCCN)NC(=O)[C@H](CO)NC(=O)[C@H](Cc1ccc(O)cc1)NC(=O)[C@H](CC(=O)O)NC(=O)[C@H](CO)NC(=O)[C@@H](NC(=O)[C@H](Cc1ccccc1)NC(=O)[C@@H](NC(=O)CNC(=O)[C@H](CCC(=O)O)NC(=O)[C@@H](C)NC(=O)[C@@H](N)Cc1c[nH]cn1)[C@@H](C)O)[C@@H](C)O)C(C)C)[C@@H](C)O)C(=O)O)C(=O)O` [(D-A^2) dogfish glucagon Lys^30-γ-Glutamyl-PAL] (H-H[dA]EGTFTSDYSKYMDNRRAKDFVQWLMNTK([γGlu-Palmitoyl])-OH; N-terminus and C-terminus assumed) reads 11.6%.
